Patent US6124380A, “Metal containing e-coat catalysts optionally with tin catalysts” (priority 1999, dated 2000)

How the values were obtained:
[1] = tested on: Rats; assay: Acute Oral toxicity; assay type: in vivo
Source text: (§1) Generally, the toxicity of tin compounds increases as the organic substituents on the tin atom increase from one to two to three whereas there is a decrease in toxicity with increasing alkyl chain length where the organotin compound is alkyl substituted. However, the extraordinary decrease in toxicity in TOTO due to alkyl chain length is quite unexpected. The relatively low toxicity of TOTO which makes it especially suitable in industrial coating applications is illustrated by the following: […]

[2] = Acute Dermal toxicity; assay type: in vivo
Source text: as §1

[3] = tested on: Rabbits; assay: Primary Dermal Irritation; assay type: in vivo
Source text: as §1

[4] = tested on: Rabbits; assay: Primary Eye Irritation; assay type: in vivo
Source text: as §1

[5] = tested on: Salmonella and E. Coli; assay: Mutation Assays Ames/Salmonella and E. Coli; assay type: cell-based
Source text: as §1

[6] = tested on: Daphnia; assay: Aquatic Toxicity Daphnia; assay type: in vivo
Source text: as §1

[7] = tested on: Flathead Minnow; assay: Aquatic Toxicity Flathead Minnow; assay type: in vivo
Source text: as §1

[8] = Toxicity of TOTO compared with TBTO; conditions: in vivo
Source text: as §1

Row | Compound | Acute Oral LD50 [1] | Acute Oral, comment [1] | Acute Dermal, comment ([2]; No more than Slightly) | Acute Dermal LD50 ([2]; in vivo, topical or ocular) | Primary Dermal Irritation, comment ([3]; rabbits) | Primary Dermal Irritation ([3]; score out of 8.0, rabbits) | Primary Eye Irritation, comment ([4]; rabbits) | Primary Eye Irritation ([4]; score out of 110.0, rabbits) | Mutation Assays [5] | Aquatic Toxicity 48 h LC50 Daphnia ([6]; solubility limit) | Aquatic Toxicity 96 h LC50 Flathead Minnow ([7]; solubility limit) | Toxicity relative to TBTO [8] | Aquatic Toxicity 48 h LC50 Daphnia (comment, TBTO) [6] | Aquatic Toxicity 96 h LC50 Flathead Minnow (comment, TBTO) [7]
1 | CCCCCCC[CH2][Sn]([CH2]CCCCCCC)([CH2]CCCCCCC)[O][Sn]([CH2]CCCCCCC)([CH2]CCCCCCC)[CH2]CCCCCCC [TOTO, Bis(trioctyltin)oxide] | > 5000 mg/kg | Practically Nontoxic | Slightly | > 2000 mg/kg | Slightly Irritating | 1.75 | Slightly Irritating | 2.6 | Not Mutagenic | > 87,000 ug/L | > 13,500 ug/L | significantly less toxic than TBTO | – | –
2 | CCC[CH2][Sn]([CH2]CCC)([CH2]CCC)[O][Sn]([CH2]CCC)([CH2]CCC)[CH2]CCC [TBTO, Bis(tributyltin) oxide] | – | – | – | – | – | – | – | – | – | – | – | – | 0.002 µg/mL | 0.05 µg/mL
